How the values were obtained:
Phytophthora sojae = details: oomycete carrying encoding gene of mutated protein; cited from earlier work
[1] = system: Avh109 gene complemented transformants of Phytophthora sojae (Nat1 gene as selection marker); assay: Growth on nourseothricin-containing V8 culture medium, candidate transformants carrying the Nat1 gene; format: cell-based; details: 50 μg/mL nourseothricin; 15 candidate transformants with Nat1 gene
Experimental: (S2) After the centrifugation, the supernatant was discarded. Then 5 mL of PM culture medium were added into the centrifuge tube to resuspend the regenerated hypha. After that, 5 mL of 30 μg/mL nourseothricin-containing PM culture medium were added into the centrifuge tube, and mixed to be poured into a petri dish. Then the petri dish was subjected to drying, and culturing at 25° C. in dark for 3-4 days to perform primary screening.
(S3) The growth condition of hyphae on the surface of the petri dish was observed. 10 mL of 50 μg/mL nourseothricin-containing V8 culture medium were added into the petri dish, and cultured at 25° C. in the dark for 3-4 days to perform secondary screening.
(S4) The growth condition of hyphae on the surface of the petri dish was observed. The regenerated strain was transferred to the 50 μg/mL nourseothricin-containing V8 culture medium to perform tertiary screening. After three screenings in the presence of nourseothricin, 15 transformants were obtained, which were preliminarily considered to be complemented transformants (candidate transformants) for subsequent identification.
(§1) The 15 candidate transformants screened in Example 1 were transformed to the 50 μg/mL nourseothricin-containing V8 culture medium to observe the growth condition of the 15 candidate transformants, and the wide-type Phytophthora sojae is used as a control strain.

[2] = system: wide-type Phytophthora sojae; assay: Growth on nourseothricin-containing V8 culture medium, control strain; format: cell-based; details: 50 μg/mL nourseothricin, grows on V8 medium without nourseothricin
Experimental: as §1

Compound: Cc1cc(C(F)(F)F)nn1CC(=O)N1CCC(c2nc(C3=NOC(c4c(F)cccc4F)C3)cs2)CC1 (stereo not drawn) [oxathiapiprolin]
- resistance to oxathiapiprolin induced in the oomycete by the mutated protein (Phytophthora sojae): more than 500 times

Compound: nourseothricin
- growth condition on nourseothricin-containing V8 medium [1]: able to grow normally
- growth condition on nourseothricin-containing V8 medium [2]: not able to grow
